Assay results published in ChEMBL document CHEMBL1134960, “Benzotrithiole 2-oxide: a new family of thiol-activated DNA-cleaving functionalities” (Bioorg Med Chem Lett, 2002).

Key:
Type in all cases: functional, cell-based
[1] = Cytotoxicity against […] cancer cell lines PACA2 was determined; details: Homo sapiens
A498 = test: Cytotoxicity against human kidney carcinoma cell lines A4982LM
[2] = Cytotoxicity against Breast cancer cell lines MDA-231 was determined; details: Homo sapiens
HT-29 = test: Cytotoxicity against Colon cancer cell lines HT-29 was determined; details: Homo sapiens
UMUC3 = test: Cytotoxicity against bladder cancer cell lines UMUC3 was determined; details: Homo sapiens
PC-3 = test: Cytotoxicity against prostate cancer cell lines PC-3 was determined; details: Homo sapiens
MCF7 = test: Cytotoxicity against human breast carcinoma cell lines MCF-7
A549 = test: Cytotoxicity against […] cell lines A549 was determined; details: Homo sapiens

In the case of COc1cccc2c1C(=O)c1c(O)c3c(c(O)c1C2=O)C[C@@](O)(C(=O)CO)C[C@@H]3O[C@H]1C[C@H](N)[C@H](O)[C@H](C)O1 [DOXORUBICIN], the IC50 [1] is reported as 8.7 nM, the IC50 (A498) is reported as 52.8 nM and the IC50 [2] is reported as 1.95 nM. The IC50 (HT-29) was 61.8 nM and the IC50 (UMUC3) was 9.2 nM.
Compound [O-][S+]1Sc2ccccc2S1 has an IC50 [1] of 982 nM, an IC50 (A498) of 850 nM and an IC50 (PC-3) of 62.9 nM. It also gave an IC50 (MCF7) of 209 nM, an IC50 (A549) of 151 nM and an IC50 [2] of 627 nM. It also gave an IC50 (HT-29) of 78.9 nM and an IC50 (UMUC3) of 366 nM.
